Patent US8937182B2, “Synthesis for thiazolidinedione compounds” (Metabolic Solutions Development Company, LLC, priority 2010, dated 2015)

Tested on: KKA^Y mice
Assay: Glucose, insulin and triglyceride in diabetic KKAy mice treated with exemplary compounds
Format: in vivo
Conditions: 93 mg/kg oral for 4 days, blood approx. 18 h after last dose, fasted, Vehicle A 24 (5)
Method: The insulin sensitizing and antidiabetic pharmacology are measured in the KKA^Y mice as previously reported [Hofmann, C., Lornez, K., and Colca, J. R. (1991). Glucose transport deficiency corrected by treatment with the oral anti-hyperglycemic agent Pioglitazone. Endocrinology, 129:1915-1925.] Compounds are formulated in 1% sodium carboxy methylcellulose, and 0.01% tween 20 and dosed daily by oral gavage.
Glucose, Insulin, and Triglyceride in Diabetic KKAy Mice Treated with Exemplary Compounds of the Present Invention.
The insulin sensitizing and antidiabetic pharmacology are measured in the KKA^Y mice as previously reported [Hofmann, C., Lornez, K., and Colca, J. R. (1991). Glucose transport deficiency corrected by treatment with the oral anti-hyperglycemic agent Pioglitazone. Endocrinology, 129:1915-1925.]. Compounds are formulated in 1% sodium carboxy methylcellulose, and 0.01% tween 20 and dosed daily by oral gavage.
Compounds were formulated by suspension and orally dosed to KKA^Y mice at 93 mg/kg for 4 days. The compounds were first dissolved in DMSO and then placed into aqueous suspension containing 7-10% DMSO, 1% sodium methylcarboxycellulose, and 0.01% Tween 20. On the fifth day, the mice were fasted and blood samples were obtained approximately 18 hours after the last dose. The parameters were measured by standard assay methods. Data are mean and SEM N=6-12 mice.

Going from `O=C1NC(=O)C(Cc2ccc(OCC(=O)c3cccc(Cl)c3)cc2)S1` (stereo not drawn) [Compound 7, 5-{4-[2-(3-chlorophenyl)-2-oxoethoxy]benzyl}-1,3-thiazolidine-2,4-dione] to `O=C1NC(=O)C(Cc2ccc(OCC(=O)c3cccc(F)c3)cc2)S1` (stereo not drawn) [Compound 4, 5-{4-[2-(3-fluorophenyl)-2-oxoethoxy]benzyl}-1,3-thiazolidine-2,4-dione], the “Insulin (Mean/SD)” value falls from 0.59 to 0.24.

First: O=C1NC(=O)C(Cc2ccc(OCC(=O)c3ccc(F)cc3)cc2)S1 (stereo not drawn) [Compound 2, 5-{4-[2-(4-fluorophenyl)-2-oxoethoxy]benzyl}-1,3-thiazolidine-2,4-dione]
Second: COc1ccc(C(=O)COc2ccc(CC3SC(=O)NC3=O)cc2)cc1 (stereo not drawn) [Compound 9, 5-{4-[2-(4-methoxyphenyl)-2-oxoethoxy]benzyl}-1,3-thiazolidine-2,4-dione]
The “Insulin (Mean/SD)” value of the first is lower: 0.10 for the first, 0.76 for the second.

Going from `O=C1NC(=O)C(Cc2ccc(OCC(=O)c3ccccc3F)cc2)S1` (stereo not drawn) [Compound 3, 5-{4-[2-(2-fluorophenyl)-2-oxoethoxy]benzyl}-1,3-thiazolidine-2,4-dione] to `O=C1NC(=O)C(Cc2ccc(OCC(=O)c3ccccc3Cl)cc2)S1` (stereo not drawn) [Compound 8, 5-{4-[2-(2-chlorophenyl)-2-oxoethoxy]benzyl}-1,3-thiazolidine-2,4-dione], the “Insulin (Mean/SD)” value rises from 0.20 to 0.47.
